Laboratory results as given in US8476036B2, “Nonluminogenic assay for living cells” (Promega Corporation, priority 2004, dated 2013).
Marks after values point to notes of the source that are not given here. Numbered stars: 1 amine (or outer) side, 2 acyl side, 3 side chain; on linkers, the order of the positions; unused ones are H or OH. Square brackets hold non-standard residues; d marks the D form. Peptide text beside a SMILES is read from it. * marks the point of attachment. AFC = O=c1cc(C(F)(F)F)c2ccc(N*)cc2o1; Glutaryl = O=C(CCCC(=O)[*:2])[*:1]; AMC = Cc1cc(=O)oc2cc(N*)ccc12; Suc = O=C(CCC(=O)[*:2])[*:1]; Cbz = O=C(OCc1ccccc1)*

How the values were obtained:
Assay type in all cases: cell-based
HL-60 or Jurkat [1] = test: Protease retention substrate selectivity, untreated viable cells; design: key: None denotes no statistical activity above control population.; (+) to (+++++) denotes the range of activity above control population from modest to robust; (+) to (+++++) denotes the range of activity above control population from modest to robust; (+) to (+++++) denotes the range of activity above control population from modest to robust; (+) to (+++++) denotes the range of activity above control population from modest to robust; (+) to (+++++) denotes the range of activity above control population from modest to robust; details: substrate cleavage activity above control in untreated viable cells; 15-30 minutes at 37° C.
Excerpt: (§1) Ala-Ala-Phe-AMC was obtained from Promega. Z-Leu-Leu-Val-Tyr-aminoluciferin (LLVY corresponds to SEQ ID NO:18), Z-Leu-Arg-aminoluciferin, Z-Phe-Arg-aminoluciferin, Ala-Ala-Phe-aminoluciferin, (Ala-Ala-Phe)2-R110, and (Gly-Phe)2-R110 were synthesized by Promega Biosciences. Suc-Ala-Ala-Phe-AMC, H-Phe-AMC, H-Tyr-AMC, Glutyl-Ala-Ala-Phe-AMC (EMF corresponds to SEQ ID NO:32), H-Gly-Phe-AMC, Z-Gly-Ala-Met-AMC, Suc-Leu-Leu-Val-Tyr-AMC (LLVY corresponds to SEQ ID NO:18), D-Ala-Leu-Lys-AMC, H-Gly-Ala-AMC, H-Gly-Gly-AMC, Suc-Ala-Ala-Phe-AMC, Z-Arg-Leu-Arg-Gly-Gly-AMC (RLRGG corresponds to SEQ ID NO:29), Z-Leu-Arg-Gly-Gly-AMC (LRGG corresponds to SEQ ID NO:30) and Ac-Ala-Ala-Tyr-AMC were sourced from Bachem. Gly-Phe-AFC, Pro-Phe-Arg-AMC, Gly-Gly-Leu-AMC, and Ser-Tyr-AFC were obtained from Calbiochem. Z-Phe-Arg-AMC and Suc-Arg-Pro-Phe-His-Leu-Leu-Val-Tyr-AMC (RPHLLVY corresponds to SEQ ID NO:31) were purchased from Sigma.
(§2) All substrates were solubilized in DMSO from 10 to 100 mM depending upon inherent solubility. Fluorescent substrates were diluted to 100 μM to 1 mM in 10 mM Hepes, pH 7.5 or matched cell culture medium with 10% serum and added in 1/10th volumes to lysed (freeze fractured, sonicated, or detergent) or untreated viable cells in white-walled, clear bottomed 96-well plates. HL-60 or Jurkat were used in the experimentation interchangeably because of their easily manipulated suspension phenotype. Plates were incubated for 15-30 minutes at 37° C. prior to measuring fluorescence by the CYTOFLUOR® II.
(§3) Luminescent substrates were added to a luciferin detection cake (Promega V859A) resuspended in 2 ml 10 mM Hepes, pH 7.5 to 500 μM. ⅕^th volume of the proluminescent reaction mixes were added to lysed (freeze fractured, sonicated, or detergent) or untreated viable cells in white-walled, clear bottomed 96-well plates. Again, HL-60 or Jurkat were used in the experimentation interchangeably. Plates were incubated at 37° C. in a MeCour' circulating heat block controlled by a Caron 2050W exchange unit. Luminescence was measured between 15 and 30 minutes (signal steady state).
(§4) A broad variety of proteolytic substrates were examined in an effort to characterize potential substrate preferences for protease release or retention in compromised or viable cells (see Table 4). […] Non-blocked substrates (H- and the like) were examined to include the contribution of aminopeptidase activities. From this panel, at least three proteolytic profiles emerged: an aminopeptidase-like activity preferring unblocked Ala-Ala-Phe tripeptide, a proteosomal (chymotrypsin-like) activity measured by release of blocked Leu-Leu-Val-Tyr (SEQ ID NO:18) peptides, and an exceedingly labile activity by Gly-Phe, Gly-Ala, Phe-, Tyr- or Gly-Gly-Leu substrates. The latter activities were only measurable in viable, intact cells. Of further significance is that several fluorophores or proluminescent labels can be used to detect these activities, ultimately allowing for enhanced downstream multiplexing flexibility.

HL-60 or Jurkat [2] = test: Protease release substrate selectivity, lysed (freeze fractured, sonicated, or detergent) cells; design: key: None denotes no statistical activity above control population.; (+) to (+++++) denotes the range of activity above control population from modest to robust; (+) to (+++++) denotes the range of activity above control population from modest to robust; (+) to (+++++) denotes the range of activity above control population from modest to robust; (+) to (+++++) denotes the range of activity above control population from modest to robust; (+) to (+++++) denotes the range of activity above control population from modest to robust; details: substrate cleavage activity above control in lysed cells; 15-30 minutes at 37° C.
Excerpt: as §1, §2, §3, §4

SK-MEL-28 cells = test: Live cell protease retention multiplexed with caspase 3/7 activity, SK-MEL-28; details: SK-MEL-28, serial dilutions, 5 hours
Experimental: SK-MEL-28 or ACHN cells were seeded into white-walled, clear bottomed 96 well plates at a density of 10,000 cells per well in 100 μl volumes and allowed to attach at 37° C. in 5% CO2 for a period of 2 hours. After attachment, 50 μl of medium was carefully removed and replaced with serial dilutions of either ionomycin or staurosporine in MEM+10% FBS. Medium only served as control. The plate was incubated for an additional 5 hours. A 1 mM solution of Gly-Phe-AFC was made in MEM and added to the wells in a 1/10th volume. Resulting fluorescence was measured using a CYTOFLUOR® II. Caspase-GIo™ 3/7 reagent was then added and luminescence measure using a BMG FLUOstar Optima.

With `CC(N)C(=O)NC(C)C(=O)NC(Cc1ccccc1)C(=O)Nc1ccc2c(c1)Oc1cc(NC(=O)C(Cc3ccccc3)NC(=O)C(C)NC(=O)C(C)N)ccc1C21OC(=O)c2ccccc21` (stereo not drawn) [(Ala-Ala-Phe) 2 R110, (Ala-Ala-Phe)2-R110] the Retention (HL-60 or Jurkat [1]) was “None” and the Release (HL-60 or Jurkat [2]) was “+++++”.

With `CC(=O)NC(C)C(=O)NC(C)C(=O)NC(Cc1ccc(O)cc1)C(=O)Nc1ccc2c(C)cc(=O)oc2c1` (stereo not drawn) [Ac-Ala-Ala-Tyr-AMC] (Ac-Ala-Ala-Tyr-{AMC}; configuration not given here) the Retention (HL-60 or Jurkat [1]) was “None” and the Release (HL-60 or Jurkat [2]) was “None”.

With `Cc1cc(=O)oc2cc(NC(=O)C(Cc3ccccc3)NC(=O)C(C)NC(=O)C(C)N)ccc12` (stereo not drawn) [Ala-Ala-Phe-AMC] (H-Ala-Ala-Phe-{AMC}; configuration not given here) the Retention (HL-60 or Jurkat [1]) was “None” and the Release (HL-60 or Jurkat [2]) was “+++++”.

With `CC(N)C(=O)NC(C)C(=O)NC(Cc1ccccc1)C(=O)Nc1ccc2nc(C3=NC(C(=O)O)CS3)sc2c1` (stereo not drawn) [Ala-Ala-Phe-Aminoluc, Ala-Ala-Phe-aminoluciferin] the Retention (HL-60 or Jurkat [1]) was “None” and the Release (HL-60 or Jurkat [2]) was “+++++”.

In the case of `Cc1cc(=O)oc2cc(NC(=O)[C@H](Cc3ccccc3)NC(=O)[C@H](C)NC(=O)[C@H](C)NC(=O)CCCC(=O)O)ccc12` [Gluty-Ala-Ala-Phe-AMC, Glutyl-Ala-Ala-Phe-AMC] (Glutaryl-Ala-Ala-Phe-{AMC}), the Retention (HL-60 or Jurkat [1]) is reported as “None” and the Release (HL-60 or Jurkat [2]) is reported as “None”.

With `NCC(=O)N[C@@H](Cc1ccccc1)C(=O)Nc1ccc2c(C(F)(F)F)cc(=O)oc2c1` [Gly-Phe-AFC] (H-Gly-Phe-{AFC}) the Retention (HL-60 or Jurkat [1]) was “+++++” and the Release (HL-60 or Jurkat [2]) was “None”.

For `Cc1cc(=O)oc2cc(NC(=O)[C@H](Cc3ccccc3)NC(=O)CN)ccc12` [Gly-Phe-AMC, H-Gly-Phe-AMC] (H-Gly-Phe-{AMC}), the Retention (HL-60 or Jurkat [1]) was “++” and the Release (HL-60 or Jurkat [2]) was “None”.

In the case of `Cc1cc(=O)oc2cc(NC(=O)[C@H](CCCCN)NC(=O)[C@H](CC(C)C)NC(=O)[C@@H](C)N)ccc12` [H-D-Ala-Leu-Lys-AMC] (H-[dA]-Leu-Lys-{AMC}), the Retention (HL-60 or Jurkat [1]) is reported as “None” and the Release (HL-60 or Jurkat [2]) is reported as “None”.

In the case of `Cc1cc(=O)oc2cc(NC(=O)C(C)NC(=O)CN)ccc12` (stereo not drawn) [H-Gly-Ala-AMC], the Retention (HL-60 or Jurkat [1]) is reported as “++” and the Release (HL-60 or Jurkat [2]) is reported as “None”.

For `Cc1cc(=O)oc2cc(NC(=O)CNC(=O)CN)ccc12` [H-Gly-Gly-AMC] (H-Gly-Gly-{AMC}), the Retention (HL-60 or Jurkat [1]) was “None” and the Release (HL-60 or Jurkat [2]) was “None”.

With `Cc1cc(=O)oc2cc(NC(=O)[C@@H](N)Cc3ccccc3)ccc12` [H-Phe-AMC] the Retention (HL-60 or Jurkat [1]) was “+++” and the Release (HL-60 or Jurkat [2]) was “None”.

`Cc1cc(=O)oc2cc(NC(=O)[C@H](CCCN=C(N)N)NC(=O)[C@H](Cc3ccccc3)NC(=O)[C@@H]3CCCN3)ccc12` [H-Pro-Phe-Arg-AMC] (H-Pro-Phe-Arg-{AMC}) was tested, and the Retention (HL-60 or Jurkat [1]) was “None” and the Release (HL-60 or Jurkat [2]) was “None”.

In the case of `Cc1cc(=O)oc2cc(NC(=O)[C@@H](N)Cc3ccc(O)cc3)ccc12` [H-Tyr-AMC], the Retention (HL-60 or Jurkat [1]) is reported as “++” and the Release (HL-60 or Jurkat [2]) is reported as “None”.

In the case of `N[C@@H](CO)C(=O)N[C@@H](Cc1ccc(O)cc1)C(=O)Nc1ccc2c(C(F)(F)F)cc(=O)oc2c1` [Ser-Tyr-AFC] (H-Ser-Tyr-{AFC}), the Retention (HL-60 or Jurkat [1]) is reported as “None” and the Release (HL-60 or Jurkat [2]) is reported as “None”.

With `Cc1cc(=O)oc2cc(NC(=O)[C@H](Cc3ccccc3)NC(=O)[C@H](C)NC(=O)[C@H](C)NC(=O)CCC(=O)O)ccc12` [Suc-Ala-Ala-Phe-AMC] (Suc-Ala-Ala-Phe-{AMC}) the Retention (HL-60 or Jurkat [1]) was “None” and the Release (HL-60 or Jurkat [2]) was “None”.

With `Cc1cc(=O)oc2cc(NC(=O)[C@H](Cc3ccc(O)cc3)NC(=O)[C@@H](NC(=O)[C@H](CC(C)C)NC(=O)[C@H](CC(C)C)NC(=O)CCC(=O)O)C(C)C)ccc12` [Suc-Leu-Leu-Val-Tyr-AMC] (Suc-LLVY-{AMC}) the Retention (HL-60 or Jurkat [1]) was “None” and the Release (HL-60 or Jurkat [2]) was “+”.

For `Cc1cc(=O)oc2cc(NC(=O)CNC(=O)CNC(=O)[C@H](CCCN=C(N)N)NC(=O)[C@H](CC(C)C)NC(=O)[C@H](CCCN=C(N)N)NC(=O)OCc3ccccc3)ccc12` [Z-Arg-Leu-Arg-Gly-Gly-AMC], the Retention (HL-60 or Jurkat [1]) was “None” and the Release (HL-60 or Jurkat [2]) was “None”.

In the case of `CSCC[C@H](NC(=O)[C@H](C)NC(=O)CNC(=O)OCc1ccccc1)C(=O)Nc1ccc2c(C)cc(=O)oc2c1` [Z-Gly-Ala-Met-AMC] (Cbz-Gly-Ala-Met-{AMC}), the Retention (HL-60 or Jurkat [1]) is reported as “None” and the Release (HL-60 or Jurkat [2]) is reported as “None”.

`Cc1cc(=O)oc2cc(NC(=O)[C@H](CC(C)C)NC(=O)CNC(=O)CNC(=O)OCc3ccccc3)ccc12` [Z-Gly-Gly-Leu-AMC] (Cbz-Gly-Gly-Leu-{AMC}) was tested, and the Retention (HL-60 or Jurkat [1]) was “++*” and the Release (HL-60 or Jurkat [2]) was “None”.

In the case of `CC(C)C[C@H](NC(=O)OCc1ccccc1)C(=O)N[C@@H](CCCNC(=N)N)C(=O)Nc1ccc2nc(C3=N[C@@H](C(=O)O)CS3)sc2c1` [Z-Leu-Arg-Aluc, Z-Leu-Arg-aminoluciferin], the Retention (HL-60 or Jurkat [1]) is reported as “None” and the Release (HL-60 or Jurkat [2]) is reported as “None”.

`Cc1cc(=O)oc2cc(NC(=O)CNC(=O)CNC(=O)[C@H](CCCN=C(N)N)NC(=O)[C@H](CC(C)C)NC(=O)OCc3ccccc3)ccc12` [Z-Leu-Arg-Gly-Gly-AMC] (Cbz-LRGG-{AMC}) was tested, and the Retention (HL-60 or Jurkat [1]) was “None” and the Release (HL-60 or Jurkat [2]) was “None”.

In the case of `Cc1cc(=O)oc2cc(NC(=O)C(CCCN=C(N)N)NC(=O)C(Cc3ccccc3)NC(=O)OCc3ccccc3)ccc12` (stereo not drawn) [Z-Phe-Arg-AMC] (Cbz-Phe-Arg-{AMC}; configuration not given here), the Retention (HL-60 or Jurkat [1]) is reported as “None^1” and the Release (HL-60 or Jurkat [2]) is reported as “None”.

In the case of `N=C(N)NCCCC(NC(=O)C(Cc1ccccc1)NC(=O)OCc1ccccc1)C(=O)Nc1ccc2nc(C3=NC(C(=O)O)CS3)sc2c1` (stereo not drawn) [Z-Phe-Arg-Aluc, Z-Phe-Arg-aminoluciferin], the Retention (HL-60 or Jurkat [1]) is reported as “None” and the Release (HL-60 or Jurkat [2]) is reported as “None”.

In the case of `C[C@H](CCC(=O)O)C[C@H](C)C[C@H](C)C(=O)/C=C(\O)[C@H](C)C[C@H](C)C/C=C/[C@@H](C)[C@@H](O)[C@@H](C)[C@@H](O)C[C@@H]1CC[C@@](C)([C@H]2CC[C@@](C)([C@@H](C)O)O2)O1` [ionomycin], the “Cytotoxicity profile (live cell fluorescence and caspase 3/7 activity)” value (SK-MEL-28 cells) is reported as “necrotic-type profile”.

In the case of “Suc-RPFHLLVY-{AMC} [S-R-P-F-H-L-L-V-Y-AMC]”, the Retention (HL-60 or Jurkat [1]) is reported as “None” and the Release (HL-60 or Jurkat [2]) is reported as “None”.
